Patent US11109593B2, “Isoxazolin-5-one derivative and herbicide containing same as active ingredient” (HOKKO CHEMICAL INDUSTRY CO., LTD., priority 2017, dated 2021)
One block for each compound: values may come before it.

How the values were obtained:
[1] = system: Scirpus juncoides; test: Test Example 2: herbicidal effect test by treatment during growing period in paddy rice cultivation (seven days after seeding); format: in vivo; conditions: 120 g/10a active ingredient, assessed 14 days after treatment, dry weight vs untreated area; for pest or weed control at 1200 g/ha: Schoenoplectiella juncoides, 336 h, read-out: herbicidal rate (%) Scirpus juncoides
Method in brief: (§1)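 Greenhouse flooded-pot test, seeds sown in puddled paddy soil; emulsion applied into water 7 d after seeding, 120 g a.i./10 a. Dry-weight-based herbicidal rate at 14 d, n=2.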

[2] = system: broad leaf weeds (Lindernia pyxidaria and Monochoria vaginalis); test: as above; format: in vivo; conditions: 120 g/10a active ingredient, assessed 14 days after treatment, dry weight vs untreated area; for pest or weed control at 1200 g/ha: 336 h
Method in brief: as §1

[3] = system: Echinochloa crus-galli; test: as above; format: in vivo; conditions: 120 g/10a active ingredient, assessed 14 days after treatment, dry weight vs untreated area; for pest or weed control at 1200 g/ha: Echinochloa crus-galli, 336 h, read-out: herbicidal rate (%) Echinochloa crus-galli
Method in brief: as §1

[4] = system: Chenopodium album; test: Test Example 3: herbicidal effect test by treatment of dry field farming soil (one day after seeding); format: in vivo; conditions: 120 g/10a active ingredient, evaluated 14 days after treatment; for pest or weed control at 1200 g/ha: Chenopodium album, 336 h, read-out: herbicidal rate, Chenopodium album
Method in brief: (§2)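 Compound emulsions are sprayed on the soil surface one day after sowing (120 g a.i. per 10 ares) before weeds emerge. Effect is expressed as percent dry-weight reduction versus untreated controls 14 days post-treatment.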

[5] = system: Amaranthus viridis; test: as above; format: in vivo; conditions: 120 g/10a active ingredient, evaluated 14 days after treatment; for pest or weed control at 1200 g/ha: Amaranthus viridis, 336 h, read-out: herbicidal rate, Amaranthus viridis
Method in brief: as §2

[6] = system: southern crabgrass; test: as above; format: in vivo; conditions: 120 g/10a active ingredient, evaluated 14 days after treatment; for pest or weed control at 1200 g/ha: Digitaria ciliaris, 336 h, read-out: herbicidal rate, southern crabgrass
Method in brief: as §2

[7] = system: Echinochloa crus-galli; test: as above; format: in vivo; conditions: 120 g/10a active ingredient, evaluated 14 days after treatment; for pest or weed control at 1200 g/ha: Echinochloa crus-galli, 336 h, read-out: herbicidal rate, Echinochloa crus-galli
Method in brief: as §2

[8] = system: Scirpus juncoides; test: Test Example 1: herbicidal effect test by treatment of rice paddy soil (immediately after seeding); format: in vivo; conditions: 120 g/10a active ingredient, dry weight vs untreated area, 14 days after treatment; for pest or weed control at 1200 g/ha: in Schoenoplectiella juncoides, 336 h, read-out: Herbicidal rate (%) Scirpus juncoides
Method in brief: (§3)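 Application occurs immediately after seeding, with diluted emulsion added to paddy water (about 3 cm deep) over puddled, fertilized soil at 120 g active ingredient per 10 ares. Herbicidal rate is calculated from mean dry weight against untreated controls 14 days later.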

[9] = system: broad leaf weeds (Lindernia pyxidaria and Monochoria vaginalis); test: as above; format: in vivo; conditions: 120 g/10a active ingredient, dry weight vs untreated area, 14 days after treatment; for pest or weed control at 1200 g/ha: 336 h
Method in brief: as §3

[10] = system: Echinochloa crus-galli; test: as above; format: in vivo; conditions: 120 g/10a active ingredient, dry weight vs untreated area, 14 days after treatment; for pest or weed control at 1200 g/ha: in Echinochloa crus-galli, 336 h, read-out: Herbicidal rate (%) Echinochloa crus-galli
Method in brief: as §3

[11] = system: Chenopodium album; test: Test Example 4: herbicidal effect test by treatment of leave and stem in dry field farming (seven days after seeding); format: in vivo; conditions: 120 g/10a active ingredient, emulsion sprayed seven days after seeding, evaluated 14 days after treatment; for pest or weed control at 1200 g/ha: Chenopodium album, 336 h, read-out: herbicidal effect (herbicidal rate), Chenopodium album
Method in brief: (§4)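 Twenty seeds per species were mixed into the top 1 cm of alluvial soil in 36 cm^2 pots; emulsions were sprayed seven days after seeding at 100 L per 10 ares (120 g active ingredient per 10 ares). Herbicidal rate (%) = {1 − treated/untreated mean dry weight} × 100, 14 days after treatment, duplicate.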

[12] = system: Amaranthus viridis; test: as above; format: in vivo; conditions: 120 g/10a active ingredient, emulsion sprayed seven days after seeding, evaluated 14 days after treatment; for pest or weed control at 1200 g/ha: Amaranthus viridis, 336 h, read-out: herbicidal effect (herbicidal rate), Amaranthus viridis
Method in brief: as §4

[13] = system: southern crabgrass; test: as above; format: in vivo; conditions: 120 g/10a active ingredient, emulsion sprayed seven days after seeding, evaluated 14 days after treatment; for pest or weed control at 1200 g/ha: Digitaria ciliaris, 336 h, read-out: herbicidal effect (herbicidal rate), southern crabgrass
Method in brief: as §4

[14] = system: Echinochloa crus-galli; test: as above; format: in vivo; conditions: 120 g/10a active ingredient, emulsion sprayed seven days after seeding, evaluated 14 days after treatment; for pest or weed control at 1200 g/ha: Echinochloa crus-galli, 336 h, read-out: herbicidal effect (herbicidal rate), Echinochloa crus-galli
Method in brief: as §4

[15] = Lindernia pyxidaria, read-out: herbicidal rate (%) Lindernia pyxidaria
[16] = Monochoria vaginalis, read-out: herbicidal rate (%) Monochoria vaginalis
[17] = Monochoria vaginalis, read-out: Herbicidal rate (%) Monochoria vaginalis
[18] = in Lindernia, Lindernia pyxidaria, read-out: Herbicidal rate (%) Lindernia pyxidaria

melting point: 75 to 80 °C
Compound: CCC(C)n1oc(=O)c(Cc2ccccc2N(C(=O)OC)S(=O)(=O)C(F)(F)F)c1C (stereo not shown) [Compound 1-577, methyl N-[2-[(3-methyl-5-oxo-2-sec-butyl-isoxazol-4-yl)methyl]phenyl]-N-(trifluoromethylsulfonyl)carbamate]
pest or weed control at 1200 g/ha [1]: 90% | pest or weed control at 1200 g/ha [2, 15]: 90% | pest or weed control at 1200 g/ha [2, 16]: 90% | pest or weed control at 1200 g/ha [3]: 90% | pest or weed control at 1200 g/ha [4]: 90% | pest or weed control at 1200 g/ha [5]: 90% | pest or weed control at 1200 g/ha [6]: 90% | pest or weed control at 1200 g/ha [7]: 90% | pest or weed control at 1200 g/ha [8]: 90% | pest or weed control at 1200 g/ha [9, 17]: 90% | pest or weed control at 1200 g/ha [9, 18]: 90% | pest or weed control at 1200 g/ha [10]: 90% | pest or weed control at 1200 g/ha [11]: 40% | pest or weed control at 1200 g/ha [12]: 40% | pest or weed control at 1200 g/ha [13]: 90% | pest or weed control at 1200 g/ha [14]: 90%

melting point: 120 to 122 °C
Compound: Cc1c(Cc2ccccc2N(S(=O)(=O)C(F)(F)F)S(=O)(=O)C(F)(F)F)c(=O)on1CC(C)C [Compound 1-967, 1,1,1-trifluoro-N-[2-[(2-isobutyl-3-methyl-5-oxoisoxazol-4-yl)methyl]phenyl]-N-(trifluoromethylsulfonyl)methanesulfonamide]
pest or weed control at 1200 g/ha [1]: 80% | pest or weed control at 1200 g/ha [2, 15]: 100% | pest or weed control at 1200 g/ha [2, 16]: 90% | pest or weed control at 1200 g/ha [3]: 90% | pest or weed control at 1200 g/ha [4]: 40% | pest or weed control at 1200 g/ha [5]: 80% | pest or weed control at 1200 g/ha [6]: 90% | pest or weed control at 1200 g/ha [7]: 50% | pest or weed control at 1200 g/ha [8]: 90% | pest or weed control at 1200 g/ha [9, 17]: 100% | pest or weed control at 1200 g/ha [9, 18]: 90% | pest or weed control at 1200 g/ha [10]: 90% | pest or weed control at 1200 g/ha [11]: 40% | pest or weed control at 1200 g/ha [12]: 40% | pest or weed control at 1200 g/ha [13]: 0% | pest or weed control at 1200 g/ha [14]: 60%

melting point: 116 to 118 °C
Compound: COCC(C)n1oc(=O)c(Cc2ccccc2N(S(=O)(=O)C(F)(F)F)S(=O)(=O)C(F)(F)F)c1C (stereo not shown) [Compound 1-997, 1,1,1-trifluoro-N-[2-[[2-(2-methoxy-1-methyl-ethyl)-3-methyl-5-oxo-isoxazol-4-yl]methyl]phenyl]-N-(trifluoromethylsulfonyl)methanesulfonamide]
pest or weed control at 1200 g/ha [1]: 90% | pest or weed control at 1200 g/ha [2, 15]: 70% | pest or weed control at 1200 g/ha [2, 16]: 90% | pest or weed control at 1200 g/ha [3]: 90% | pest or weed control at 1200 g/ha [4]: 50% | pest or weed control at 1200 g/ha [5]: 50% | pest or weed control at 1200 g/ha [6]: 90% | pest or weed control at 1200 g/ha [7]: 90% | pest or weed control at 1200 g/ha [8]: 90% | pest or weed control at 1200 g/ha [9, 17]: 80% | pest or weed control at 1200 g/ha [9, 18]: 90% | pest or weed control at 1200 g/ha [10]: 90% | pest or weed control at 1200 g/ha [11]: 0% | pest or weed control at 1200 g/ha [12]: 40% | pest or weed control at 1200 g/ha [13]: 40% | pest or weed control at 1200 g/ha [14]: 70%

melting point: 107 to 109 °C
Compound: COCC(C)n1oc(=O)c(Cc2ccccc2NS(=O)(=O)C(F)(F)F)c1C (stereo not shown) [Compound 1-149, 1,1,1-trifluoro-N-[2-[[2-(2-methoxy-1-methyl-ethyl)-3-methyl-5-oxo-isoxazol-4-yl]methyl]phenyl]methanesulfonamide]
pest or weed control at 1200 g/ha [1]: 90% | pest or weed control at 1200 g/ha [2, 15]: 90% | pest or weed control at 1200 g/ha [2, 16]: 90% | pest or weed control at 1200 g/ha [3]: 100% | pest or weed control at 1200 g/ha [4]: 40% | pest or weed control at 1200 g/ha [5]: 40% | pest or weed control at 1200 g/ha [6]: 90% | pest or weed control at 1200 g/ha [7]: 90% | pest or weed control at 1200 g/ha [8]: 90% | pest or weed control at 1200 g/ha [9, 17]: 90% | pest or weed control at 1200 g/ha [9, 18]: 90% | pest or weed control at 1200 g/ha [10]: 90% | pest or weed control at 1200 g/ha [11]: 40% | pest or weed control at 1200 g/ha [12]: 40% | pest or weed control at 1200 g/ha [13]: 90% | pest or weed control at 1200 g/ha [14]: 90%

Compound: Cc1c(Cc2ccccc2N(C(=O)OCC(C)C)S(=O)(=O)C(F)(F)F)c(=O)on1C(C)c1ccccc1 (stereo not shown) [Compound 1-678]
Herbicidal rate (%) Scirpus juncoides [1]: 90% | Herbicidal rate (%) Lindernia pyxidaria ([2]; Lindernia pyxidaria): 90% | Herbicidal rate (%) Monochoria vaginalis ([2]; Monochoria vaginalis): 90% | Herbicidal rate (%) Echinochloa crus-galli [3]: 90% | herbicidal rate, Chenopodium album [4]: 90% | herbicidal rate, Amaranthus viridis [5]: 90% | herbicidal rate, southern crabgrass [6]: 90% | herbicidal rate, Echinochloa crus-galli [7]: 90% | Herbicidal rate (%) Scirpus juncoides [8]: 90% | Herbicidal rate (%) Lindernia pyxidaria ([9]; Lindernia pyxidaria): 90% | Herbicidal rate (%) Monochoria vaginalis ([9]; Monochoria vaginalis): 90% | Herbicidal rate (%) Echinochloa crus-galli [10]: 90% | herbicidal effect (herbicidal rate), Chenopodium album [11]: 40% | herbicidal effect (herbicidal rate), Amaranthus viridis [12]: 40% | herbicidal effect (herbicidal rate), southern crabgrass [13]: 90% | herbicidal effect (herbicidal rate), Echinochloa crus-galli [14]: 90%

Compound: COC(=O)N(c1ccccc1Cc1c(C)n(Cc2ccc(F)cc2)oc1=O)S(=O)(=O)C(F)(F)F [Compound 1-597]
Herbicidal rate (%) Scirpus juncoides [1]: 90% | Herbicidal rate (%) Lindernia pyxidaria ([2]; Lindernia pyxidaria): 80% | Herbicidal rate (%) Monochoria vaginalis ([2]; Monochoria vaginalis): 100% | Herbicidal rate (%) Echinochloa crus-galli [3]: 90% | herbicidal rate, Chenopodium album [4]: 0% | herbicidal rate, Amaranthus viridis [5]: 0% | herbicidal rate, southern crabgrass [6]: 90% | herbicidal rate, Echinochloa crus-galli [7]: 90% | Herbicidal rate (%) Scirpus juncoides [8]: 90% | Herbicidal rate (%) Lindernia pyxidaria ([9]; Lindernia pyxidaria): 90% | Herbicidal rate (%) Monochoria vaginalis ([9]; Monochoria vaginalis): 100% | Herbicidal rate (%) Echinochloa crus-galli [10]: 90% | herbicidal effect (herbicidal rate), Chenopodium album [11]: 40% | herbicidal effect (herbicidal rate), Amaranthus viridis [12]: 40% | herbicidal effect (herbicidal rate), southern crabgrass [13]: 50% | herbicidal effect (herbicidal rate), Echinochloa crus-galli [14]: 40%
